Results: article PMC9814697, “β-Hydroxylation of α-amino-β-hydroxylbutanoyl-glycyluridine catalyzed by a nonheme hydroxylase ensures the maturation of caprazamycin” (Communications Chemistry, 2022)

What was measured:
Cpz15 = molecular target: T1, Cpz15 (Streptomyces sp. MK730-62F2, UniProt C4NCK2); experiment: LC-MS turnover; assay type: biochemical; conditions: 1 mM UMP, 1.5 mM αKG, ascorbate, FeSO4, pH 8.0, 28 °C; product uridine 5'-aldehyde
T1 construct: pET28a, E. coli BL21(DE3), His6-tag kept
T1 sequence (C4NCK2 1-274): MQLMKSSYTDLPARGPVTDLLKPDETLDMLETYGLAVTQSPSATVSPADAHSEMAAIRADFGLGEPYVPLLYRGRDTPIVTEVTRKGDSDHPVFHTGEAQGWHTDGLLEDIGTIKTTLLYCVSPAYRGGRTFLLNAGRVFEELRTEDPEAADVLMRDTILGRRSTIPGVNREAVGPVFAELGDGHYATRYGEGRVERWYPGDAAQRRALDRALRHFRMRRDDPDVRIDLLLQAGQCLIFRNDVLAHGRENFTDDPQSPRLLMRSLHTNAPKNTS

Cpz10 = molecular target: T2, Cpz10 (Streptomyces sp. MK730-62F2, UniProt C4NCJ7); experiment: X-ray crystal structure; assay type: binding
T2 construct: pET28a, E. coli BL21(DE3), His6-tag kept; homodimer in solution
T2 sequence (C4NCJ7 1-182): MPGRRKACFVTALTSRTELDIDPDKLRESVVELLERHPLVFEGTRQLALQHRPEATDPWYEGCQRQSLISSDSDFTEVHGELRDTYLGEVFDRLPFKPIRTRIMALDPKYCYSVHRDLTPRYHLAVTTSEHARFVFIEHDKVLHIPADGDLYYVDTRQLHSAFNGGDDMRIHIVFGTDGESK

Cpz27 = molecular target: T3, Cpz27 (Streptomyces sp. MK730-62F2, UniProt C4NCL4); experiment: LC-MS turnover; assay type: biochemical; conditions: 1 mM, with 500 μM compound 13, 1 mM Mg, pH 8.0, 28 °C
T3 construct: pGM1202, Streptomyces lividans TK64, His6-tag kept

[1] = substrate: CSCC[C@H](N)C(=O)O; experiment: LC assay, Michaelis-Menten; assay type: biochemical, Streptomyces sp. MK730-62F2; conditions: pseudo-first order condition, αKG, ascorbate, FeSO4, pH 7.5, 28 °C, sulfoxidation to MSO

T3 sequence (C4NCL4 entry or part of it): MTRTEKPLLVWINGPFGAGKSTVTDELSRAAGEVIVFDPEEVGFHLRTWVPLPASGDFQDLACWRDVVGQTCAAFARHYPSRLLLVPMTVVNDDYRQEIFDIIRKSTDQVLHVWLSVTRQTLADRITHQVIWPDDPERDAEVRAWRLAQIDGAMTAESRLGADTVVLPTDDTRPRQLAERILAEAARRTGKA

O=c1ccn([C@@H]2O[C@H](COP(=O)(O)O)[C@@H](O)[C@H]2O)c(=O)[nH]1 [UMP]
LC-MS turnover (Cpz15): a new peak emerge on the LC trace concomitant with dwindling of UMP

O=C(O)CCC(=O)C(=O)O [αKG]
X-ray crystal structure (Cpz10; Fe1 present, 1.9 Å, bidentate to Fe1): two complexes (with αKG (PDB code: 7V4M)

Nc1ncnc2c1ncn2[C@@H]1O[C@H](COP(=O)(O)OP(=O)(O)OP(=O)(O)O)[C@@H](O)[C@H]1O [ATP]
LC-MS turnover (Cpz27): at the expense of one molecule of ATP

O=C(O)CCC(=O)O [succinic acid]
X-ray crystal structure (Cpz10; formed in crystal from soaked αKG, with compound 12 and Fe1): αKG soaked in the crystals has been converted to succinic acid

B1: Cpz10 (Streptomyces sp. MK730-62F2) (protein)
chain: MPGRRKACFVTALTSRTELDIDPDKLRESVVELLERHPLVFEGTRQLALQHRPEATDPWYEGCQRQSLISSDSDFTEVHGELRDTYLGEVFDRLPFKPIRTRIMALDPKYCYSVHRDLTPRYHLAVTTSEHARFVFIEHDKVLHIPADGDLYYVDTRQLHSAFNGGDDMRIHIVFGTDGESK
notes: pET28a, E. coli BL21(DE3), His6-tag kept; homodimer in solution
Km [1]: 892.1 ± 9 µM | kcat [1]: 58.6 ± 0.8 min⁻¹
